Measured values taken from US20260256792A1, “TREATMENT OF CHRONIC SPONTANEOUS URTICARIA BY ADMINISTERING (R)-2-[3-[4-AMINO-3-(2-FLUORO-4-PHENOXY-PHENYL)PYRAZOLO[3,4-D]PYRIMIDIN-1-YL]PIPERIDINE-1-CARBONYL]-4-METHYL-4-[4-(OXETAN-3-YL)PIPERAZIN-1-YL]PENT-2-ENENITRILE” (priority 2023, published 2026).

Tested on: moderate-to-severe chronic spontaneous urticaria (CSU)
Experiment: Phase 2 CSU study: itch severity score over 7 days (ISS7)
Format: in vivo, human
Conditions: for ISS7 Post-baseline Mean (SD) / ISS7 % Change difference for rilzabrutinib vs. placebo LS Mean (95% CI) / ISS7 % Change from baseline LS Mean (SE) / ISS7 Change difference for rilzabrutinib vs. placebo LS Mean (95% CI) / ISS7 Change from baseline LS Mean (SE): ITT; for Imputed non-responder n (%) (ISS7 reduction of 5 points or more) / Non-responder n (%) (ISS7 reduction of 5 points or more) / OR for rilzabrutinib vs. placebo (ISS7 reduction of 5 points or more) / RRD (%) for rilzabrutinib vs. placebo (ISS7 reduction of 5 points or more) / Responder n (%) (ISS7 reduction of 5 points or more): Omalizumab-Naïve Population, 400 mg BID
Excerpt: The study comprises a 12 week, randomized, double-blind, placebo-controlled, multi-center, dose-ranging efficacy and safety phase, followed by a 40 week open label extension (OLE) phase (see FIG. 1). The study consists of three phases and an optional OLE phase. […] Clinically, CSU is characterized by the spontaneous and recurrent appearance of pruritic hives. The proposed primary endpoints were the UAS7 at Week 12 in EU and EU reference countries and the ISS7 in the US. Regardless of where a participant was from, all assessments were the same. The UAS7 score is a composite score containing both the HSS7 and the ISS7. This allowed a global assessment of the two key components of urticaria: hives and itch. […] The UAS is a validated PRO measure. […] The daily UAS scores range from 0 to 6 point/day. […] Patients were to complete the UAS using the e-diary. […] The following secondary endpoints were to be analyzed using the same approach as for the primary endpoint: • Change from baseline in UAS7 at Week 4 • Change from baseline in UAS7 at Week 12 (for US and US reference countries) • Change from baseline in ISS7 at Week 12 (except US and US reference countries) • Change from baseline in HSS7 at Week 12

CC(C)(C=C(C#N)C(=O)N1CCC[C@@H](n2nc(-c3ccc(Oc4ccccc4)cc3F)c3c(N)ncnc32)C1)N1CCN(C2COC2)CC1 [rilzabrutinib, (R)-2-[3-[4-amino-3-(2-fluoro-4-phenoxy-phenyl)pyrazolo[3,4-d]pyrimidin-1-yl]piperidine-1-carbonyl]-4-methyl-4-[4-(oxetan-3-yl)piperazin-1-yl]pent-2-enenitrile]
ISS7 Post-baseline Mean (SD) (400 mg QPM, Week 8): 10.61 (5.22)
ISS7 % Change difference for rilzabrutinib vs. placebo LS Mean (95% CI) (400 mg QPM, Week 9): −7.07%
ISS7 % Change from baseline LS Mean (SE) (400 mg QPM, Week 9): −37.93%
ISS7 Change difference for rilzabrutinib vs. placebo LS Mean (95% CI) (400 mg QPM, Week 9): −0.74
ISS7 Change from baseline LS Mean (SE) (400 mg QPM, Week 9): −6.24 (0.96)
ISS7 Post-baseline Mean (SD) (400 mg QPM, Week 9): 10.45 (5.08)
ISS7 % Change difference for rilzabrutinib vs. placebo LS Mean (95% CI) (400 mg QPM, Week 10): −1.26%
ISS7 % Change from baseline LS Mean (SE) (400 mg QPM, Week 10): −39.07 (6.29) %
ISS7 Change difference for rilzabrutinib vs. placebo LS Mean (95% CI) (400 mg QPM, Week 10): −0.17
ISS7 Change from baseline LS Mean (SE) (400 mg QPM, Week 10): −6.47 (1.02)
ISS7 Post-baseline Mean (SD) (400 mg QPM, Week 10): 10.36 (5.24)
ISS7 % Change difference for rilzabrutinib vs. placebo LS Mean (95% CI) (400 mg QPM, Week 11): −3.30%
ISS7 % Change from baseline LS Mean (SE) (400 mg QPM, Week 11): −36.92 (6.23) %
ISS7 Change difference for rilzabrutinib vs. placebo LS Mean (95% CI) (400 mg QPM, Week 11): −0.04
ISS7 Change from baseline LS Mean (SE) (400 mg QPM, Week 11): −5.90 (0.99)
ISS7 Post-baseline Mean (SD) (400 mg QPM, Week 11): 10.97 (5.48)
ISS7 % Change difference for rilzabrutinib vs. placebo LS Mean (95% CI) (400 mg QPM, Week 12): 1.35%
ISS7 % Change from baseline LS Mean (SE) (400 mg QPM, Week 12): −35.23 (6.55) %
ISS7 Change difference for rilzabrutinib vs. placebo LS Mean (95% CI) (400 mg QPM, Week 12): 0.85
ISS7 Change from baseline LS Mean (SE) (400 mg QPM, Week 12): −5.46 (1.03)
ISS7 Post-baseline Mean (SD) (400 mg QPM, Week 12): 11.37 (5.51)
ISS7 % Change difference for rilzabrutinib vs. placebo LS Mean (95% CI) (400 mg TID, Week 1): −29.95%
ISS7 % Change from baseline LS Mean (SE) (400 mg TID, Week 1): −40.41 (5.24) %
ISS7 Change difference for rilzabrutinib vs. placebo LS Mean (95% CI) (400 mg TID, Week 1): −4.65
ISS7 Change from baseline LS Mean (SE) (400 mg TID, Week 1): −6.65 (0.76)
ISS7 Post-baseline Mean (SD) (400 mg TID, Week 1): 9.20 (5.60)
ISS7 % Change difference for rilzabrutinib vs. placebo LS Mean (95% CI) (400 mg TID, Week 2): −29.81%
ISS7 % Change from baseline LS Mean (SE) (400 mg TID, Week 2): −49.29 (5.21) %
ISS7 Change difference for rilzabrutinib vs. placebo LS Mean (95% CI) (400 mg TID, Week 2): −4.51
ISS7 Change from baseline LS Mean (SE) (400 mg TID, Week 2): −7.92 (0.79)
ISS7 Post-baseline Mean (SD) (400 mg TID, Week 2): 7.97 (5.99)
ISS7 % Change difference for rilzabrutinib vs. placebo LS Mean (95% CI) (400 mg TID, Week 3): −27.63%
ISS7 % Change from baseline LS Mean (SE) (400 mg TID, Week 3): −50.07 (5.21) %
ISS7 Change difference for rilzabrutinib vs. placebo LS Mean (95% CI) (400 mg TID, Week 3): −3.76
ISS7 Change from baseline LS Mean (SE) (400 mg TID, Week 3): −7.84 (0.83)
ISS7 Post-baseline Mean (SD) (400 mg TID, Week 3): 7.93 (5.46)
ISS7 % Change difference for rilzabrutinib vs. placebo LS Mean (95% CI) (400 mg TID, Week 4): −23.20%
ISS7 % Change from baseline LS Mean (SE) (400 mg TID, Week 4): −48.97 (5.57) %
ISS7 Change difference for rilzabrutinib vs. placebo LS Mean (95% CI) (400 mg TID, Week 4): −3.13
ISS7 Change from baseline LS Mean (SE) (400 mg TID, Week 4): −7.75 (0.88)
ISS7 Post-baseline Mean (SD) (400 mg TID, Week 4): 7.54 (5.21)
ISS7 % Change difference for rilzabrutinib vs. placebo LS Mean (95% CI) (400 mg TID, Week 5): −21.69%
ISS7 % Change from baseline LS Mean (SE) (400 mg TID, Week 5): −54.96 (5.32) %
ISS7 Change difference for rilzabrutinib vs. placebo LS Mean (95% CI) (400 mg TID, Week 5): −3.36
ISS7 Change from baseline LS Mean (SE) (400 mg TID, Week 5): −8.93 (0.86)
ISS7 Post-baseline Mean (SD) (400 mg TID, Week 5): 6.70 (5.91)
ISS7 % Change difference for rilzabrutinib vs. placebo LS Mean (95% CI) (400 mg TID, Week 6): −26.88%
ISS7 % Change from baseline LS Mean (SE) (400 mg TID, Week 6): −55.31 (5.83) %
ISS7 Change difference for rilzabrutinib vs. placebo LS Mean (95% CI) (400 mg TID, Week 6): −4.09
ISS7 Change from baseline LS Mean (SE) (400 mg TID, Week 6): −8.97 (0.93)
ISS7 Post-baseline Mean (SD) (400 mg TID, Week 6): 6.81 (6.20)
ISS7 % Change difference for rilzabrutinib vs. placebo LS Mean (95% CI) (400 mg TID, Week 7): −24.96%
ISS7 % Change from baseline LS Mean (SE) (400 mg TID, Week 7): −53.83 (5.69) %
ISS7 Change difference for rilzabrutinib vs. placebo LS Mean (95% CI) (400 mg TID, Week 7): −3.71
ISS7 Change from baseline LS Mean (SE) (400 mg TID, Week 7): −8.71 (0.91)
ISS7 Post-baseline Mean (SD) (400 mg TID, Week 7): 7.13 (5.42)
ISS7 % Change difference for rilzabrutinib vs. placebo LS Mean (95% CI) (400 mg TID, Week 8): −21.97%
ISS7 % Change from baseline LS Mean (SE) (400 mg TID, Week 8): −54.76 (5.95) %
ISS7 Change difference for rilzabrutinib vs. placebo LS Mean (95% CI) (400 mg TID, Week 8): −3.05
ISS7 Change from baseline LS Mean (SE) (400 mg TID, Week 8): −8.66 (0.95)
ISS7 Post-baseline Mean (SD) (400 mg TID, Week 8): 6.72 (5.76)
ISS7 % Change difference for rilzabrutinib vs. placebo LS Mean (95% CI) (400 mg TID, Week 9): −24.57%
ISS7 % Change from baseline LS Mean (SE) (400 mg TID, Week 9): −55.43 (6.01) %
ISS7 Change difference for rilzabrutinib vs. placebo LS Mean (95% CI) (400 mg TID, Week 9): −3.35
ISS7 Change from baseline LS Mean (SE) (400 mg TID, Week 9): −8.85 (0.95)
ISS7 Post-baseline Mean (SD) (400 mg TID, Week 9): 6.33 (5.52)
ISS7 % Change difference for rilzabrutinib vs. placebo LS Mean (95% CI) (400 mg TID, Week 10): −18.42%
ISS7 % Change from baseline LS Mean (SE) (400 mg TID, Week 10): −56.23 (6.14) %
ISS7 Change difference for rilzabrutinib vs. placebo LS Mean (95% CI) (400 mg TID, Week 10): −2.68
ISS7 Change from baseline LS Mean (SE) (400 mg TID, Week 10): −8.98 (0.99)
ISS7 Post-baseline Mean (SD) (400 mg TID, Week 10): 6.43 (5.48)
ISS7 % Change difference for rilzabrutinib vs. placebo LS Mean (95% CI) (400 mg TID, Week 11): −22.13%
ISS7 % Change from baseline LS Mean (SE) (400 mg TID, Week 11): −55.75 (6.15) %
ISS7 Change difference for rilzabrutinib vs. placebo LS Mean (95% CI) (400 mg TID, Week 11): −3.15
ISS7 Change from baseline LS Mean (SE) (400 mg TID, Week 11): −9.02 (0.96)
ISS7 Post-baseline Mean (SD) (400 mg TID, Week 11): 6.57 (5.76)
ISS7 % Change difference for rilzabrutinib vs. placebo LS Mean (95% CI) (400 mg TID, Week 12): −23.23%
ISS7 % Change from baseline LS Mean (SE) (400 mg TID, Week 12): −59.81 (6.28) %
ISS7 Change difference for rilzabrutinib vs. placebo LS Mean (95% CI) (400 mg TID, Week 12): −3.26
ISS7 Change from baseline LS Mean (SE) (400 mg TID, Week 12): −9.58 (1.01)
ISS7 Post-baseline Mean (SD) (400 mg TID, Week 12): 5.59 (5.58)
Imputed non-responder n (%) (ISS7 reduction of 5 points or more) (Week 1): 0 n (%)
Non-responder n (%) (ISS7 reduction of 5 points or more) (Week 1): 18 (51.4) n (%)
OR for rilzabrutinib vs. placebo (ISS7 reduction of 5 points or more) (Week 1): 3.240
RRD (%) for rilzabrutinib vs. placebo (ISS7 reduction of 5 points or more) (Week 1): 25.3%
Responder n (%) (ISS7 reduction of 5 points or more) (Week 1): 17 (48.6) n (%)
Imputed non-responder n (%) (ISS7 reduction of 5 points or more) (Week 2): 1 (2.9) n (%)
Non-responder n (%) (ISS7 reduction of 5 points or more) (Week 2): 17 (48.6) n (%)
OR for rilzabrutinib vs. placebo (ISS7 reduction of 5 points or more) (Week 2): 2.836
RRD (%) for rilzabrutinib vs. placebo (ISS7 reduction of 5 points or more) (Week 2): 24.1%
Responder n (%) (ISS7 reduction of 5 points or more) (Week 2): 18 (51.4) n (%)
